Read-outs that look alike come from different tables or passages of the source.
Biological target: T1, mTLR9 (Mus musculus, UniProt Q9EQU3)
T1 construct: Splenocytes isolated from male C57/BL6 mice; from tissue; host or cells: splenocytes from the spleen of male C57BL/6 mice
T1 sequence (Q9EQU3 26-1032): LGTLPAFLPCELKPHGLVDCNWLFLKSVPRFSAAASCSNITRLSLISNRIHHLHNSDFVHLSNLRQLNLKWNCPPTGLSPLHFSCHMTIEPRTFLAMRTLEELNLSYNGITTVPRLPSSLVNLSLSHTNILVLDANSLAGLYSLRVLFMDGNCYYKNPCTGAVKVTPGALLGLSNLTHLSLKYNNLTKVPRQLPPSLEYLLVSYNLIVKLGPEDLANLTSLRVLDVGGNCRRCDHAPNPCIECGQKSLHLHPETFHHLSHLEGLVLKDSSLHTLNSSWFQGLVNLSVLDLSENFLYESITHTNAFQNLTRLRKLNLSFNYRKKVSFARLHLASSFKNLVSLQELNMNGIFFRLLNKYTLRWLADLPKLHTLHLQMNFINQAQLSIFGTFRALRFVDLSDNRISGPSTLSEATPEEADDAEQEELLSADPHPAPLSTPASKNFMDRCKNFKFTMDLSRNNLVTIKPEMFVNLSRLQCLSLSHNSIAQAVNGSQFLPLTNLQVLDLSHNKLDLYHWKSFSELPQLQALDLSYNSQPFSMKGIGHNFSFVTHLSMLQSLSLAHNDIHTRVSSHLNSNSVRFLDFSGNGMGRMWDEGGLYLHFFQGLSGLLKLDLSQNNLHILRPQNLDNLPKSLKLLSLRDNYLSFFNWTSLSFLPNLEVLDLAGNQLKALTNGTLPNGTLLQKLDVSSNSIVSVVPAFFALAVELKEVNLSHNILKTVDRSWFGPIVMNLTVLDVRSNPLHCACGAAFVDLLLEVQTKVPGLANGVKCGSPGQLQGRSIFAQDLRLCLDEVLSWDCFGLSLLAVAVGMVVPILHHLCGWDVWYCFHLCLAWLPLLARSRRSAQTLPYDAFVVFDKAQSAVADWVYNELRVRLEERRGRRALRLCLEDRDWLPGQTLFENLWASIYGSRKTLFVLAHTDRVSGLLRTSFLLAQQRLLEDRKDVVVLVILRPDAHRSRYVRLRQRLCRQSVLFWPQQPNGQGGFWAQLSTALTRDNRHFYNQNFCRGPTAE
Assay: mTLR9 antagonism (IL-6 and TNF-α release assay) in mouse splenocytes, CpG ODN-2006 stimulated
Format: cell-based
Text: mTLR9 and mTLR7 Antagonism (Cytokine Release Assay) in Mouse Splenocytes
TLR7 ligand R0006 (IDT, 5′-rU*rU*rG*rU*rU*rG*rU*rU*rG*rU*rU*rG*rU*rU*rG*rU*rU*rG*rU*rU-3′ (SEQ ID NO:1)), Liposomal transfection reagent—DOTAP (Roche, Cat. No. 11202375001), TLR9 ligand CpG ODN2006 (Sequence: T*C*G*T*C*G*T*T*T*T*G*T*C*G*T*T*T*T*G*T*C*G*T*T; *=phosphorothioate (SEQ ID NO:2)) DMSO (Sigma, D2650), RPMI Powder (Sigma, R6504), Fetal Bovine Serum (Gibco, 10270), Dulbecco's Phosphate Buffered Saline (Sigma, D1408), 96 well plate (Flat bottom, Costar 3599), ELISA kit for IL-6 (EBioscience, 88-7064-77 and TNFa (EBioscience, 88-7346-88), MACS Buffer (AutoMACS Rinsing Solution (Miltenyl Biotec, 130-091-222)+0.05% BSA), RBC lysis buffer (0.85% NH4Cl), 40 μm cell strainer (BD Falcon, 352340) Method: A. Isolation of Mouse Splenocytes
Mouse spleen was isolated from C57BL6 mouse and stored in 1× chilled PBS buffer until further processed. Spleen was transferred to a sterile petriplate and chopped in to 5-6 pieces in presence of MACS buffer (100 μl) with the help of fresh surgical blade and crushed with flat plunger of a sterile syringe. A uniform suspension was prepared by passing cells through a 40 μm cell strainer. Cells were centrifuged at 450×g for 5 minutes at 4° C., supernatant was discarded and pellet dislodged gently, resuspended in 2 ml of pre-warmed (37° C.) RBC lysis buffer at room temperature with continuous gentle mixing with 1 ml pipette. Lysis buffer was neutralized with 12 ml of chilled MACS buffer and cells were passed through 40 μm cell strainer. Cell suspension was collected in 15 ml MACS buffer and centrifuged at 450×g for 5 minutes at 4° C. Pellet was resuspended in 15 ml MACS buffer and centrifuged at 400×g for 5 minutes. Cells were resuspended in 10 ml of RPMI complete medium and viability was estimated by Trypan blue method.
mTLR9 Antagonism (IL-6 and TNF-α Release Assay):
500 μM stock of CpG ODN-2006 was prepared in sterile, endotoxin-free water. Dilutions of 10× concentrations of NCEs were prepared in incomplete RPMI media, maintaining a final DMSO concentration of 0.3%. NCEs were added in a concentration range of 30 μM to 1 nM in respective wells of assay plate, assay medium containing 0.3% DMSO were added to control wells. 0.2 million splenocytes were added to all the wells and incubated at 37° C. in 5% CO2 incubator for 30 minutes. 1 μg/ml of respective agonist was added to all the wells except those were assigned as negative controls and mixed thoroughly. Incomplete RPMI was added to negative control wells and incubated overnight at 37° C./5% CO2. The plate was centrifuged at 450×g for 5 minutes at room temperature and the supernatant was collected. ELISA was performed as per manufacturer's protocol. S/B Ratio, % Activity and % Inhibition was calculated using MS Excel. IC50 and inhibition curve was generated using Graph Pad Prism.

[1] = 1 μM, IL-6 release, mouse splenocytes, read-out: mTLR9 inhibitory activity (% at 1 μM), IL-6
[2] = 1 μM, TNF-α release, mouse splenocytes, read-out: mTLR9 inhibitory activity (% at 1 μM), TNF-α

| SMILES | inhibition at 1 µM [1] [%] | inhibition at 1 µM [2] [%] | inhibition at 1 µM (read-out: mTLR9 inhibitory activity (% at 1 μM), IL-6) [%] | inhibition at 1 µM (read-out: mTLR9 inhibitory activity (% at 1 μM), TNF-α) [%] |
| --- | --- | --- | --- | --- |
| c1cc2[nH]c(CN3CCOCC3)cc2c(-c2ccc(N3CCN(C4COC4)CC3)cc2)n1 [Example A81, 4-[[4-[4-[4-(oxetan-3-yl)piperazin-1-yl]phenyl]-1H-pyrrolo[3,2-c]pyridin-2-yl]methyl]morpholine] | 37 | 20 | – | – |
| CC(C)N1CCN(c2ccc(-c3nccc4[nH]c(C(=O)N5CCOCC5)cc34)cc2)CC1 [Example A82, [4-[4-(4-isopropylpiperazin-1-yl)phenyl]-1H-pyrrolo[3,2-c]pyridin-2-yl]-morpholino-methanone] | – | – | 100 | 52 |
| CN1CCN(c2ccc(-c3nccc4[nH]c(CCN5CCOCC5)cc34)cc2)CC1 [Example B2, 4-[2-[4-[4-(4-methylpiperazin-1-yl)phenyl]-1H-pyrrolo[3,2-c]pyridin-2-yl]ethyl]morpholine] | 100 | 95 | – | – |
| Cc1cc2[nH]c(CCN3CCOCC3)cc2c(-c2ccc(N3CCN(C(C)C)CC3)cc2)n1 [Example B3, 4-[2-[4-[4-(4-isopropylpiperazin-1-yl)phenyl]-6-methyl-1H-pyrrolo[3,2-c]pyridin-2-yl]ethyl]morpholine] | 100 | 100 | – | – |
| Cc1cc2[nH]c(CCN3CCOCC3)cc2c(-c2ccc(N3CCN(C)CC3)cc2)n1 [Example B4, 4-[2-[6-methyl-4-[4-(4-methylpiperazin-1-yl)phenyl]-1H-pyrrolo[3,2-c]pyridin-2-yl]ethyl]morpholine] | – | 100 | – | – |
| Cc1cc2[nH]c(CCN3CCCCC3)cc2c(-c2ccc(N3CCN(C(C)C)CC3)cc2)n1 [Example B5, 4-[4-(4-isopropylpiperazin-1-yl)phenyl]-6-methyl-2-[2-(1-piperidyl)ethyl]-1H-pyrrolo[3,2-c]pyridine] | – | 100 | – | – |
| Cc1nc(-c2ccc(N3CCN(C(C)C)CC3)cc2)c2cc(CCN3CCOCC3)[nH]c2c1C [Example B6, 4-[2-[4-[4-(4-isopropylpiperazin-1-yl)phenyl]-6,7-dimethyl-1H-pyrrolo[3,2-c]pyridin-2-yl]ethyl]morpholine] | 100 | 100 | – | – |
| Cc1cc2c(cc(CCN3CCOCC3)n2C)c(-c2ccc(N3CCN(C(C)C)CC3)cc2)n1 [Example B11, 4-[2-[4-[4-(4-isopropylpiperazin-1-yl)phenyl]-1,6-dimethyl-pyrrolo[3,2-c]pyridin-2-yl]ethyl]morpholine] | 100 | 100 | – | – |
| Cc1cc2c(cc(CCN3CCOCC3)n2C)c(-c2ccc(N3CCN(C(C)C)CC3)cc2F)n1 [Example B19, 4-[2-[4-[2-fluoro-4-(4-isopropylpiperazin-1-yl)phenyl]-1,6-dimethyl-pyrrolo[3,2-c]pyridin-2-yl]ethyl]morpholine] | 100 | 100 | – | – |
| COc1cc(-c2nc(C)cc3c2cc(CCN2CCOCC2)n3C)ccc1N1CCN(C(C)C)CC1 [Example B22, 4-[2-[4-[4-(4-isopropylpiperazin-1-yl)-3-methoxy-phenyl]-1,6-dimethyl-pyrrolo[3,2-c]pyridin-2-yl]ethyl]morpholine] | 100 | 92 | – | – |
| Cc1cc2c(cc(CCN3CCOCC3)n2C)c(C2CCC(N3CCN(C(C)C)CC3)CC2)n1 (stereo not shown) [Example B27, 4-[2-[4-[4-(4-isopropylpiperazin-1-yl)cyclohexyl]-1,6-dimethyl-pyrrolo[3,2-c]pyridin-2-yl]ethyl]morpholine] | 100 | 72 | – | – |
| Cc1cc2c(cc(CCN3CCOCC3)n2C)c(-c2ccc(C3CCN(C(C)C)CC3)cc2)n1 [Example B31, 4-[2-[4-[4-(1-isopropyl-4-piperidyl)phenyl]-1,6-dimethyl-pyrrolo[3,2-c]pyridin-2-yl]ethyl]morpholine] | 100 | 92 | – | – |
| CC(C)N1CCN(c2ccc(-c3nccc4[nH]c(CCCN5CCOCC5)cc34)cc2)CC1 [Example C1, 4-[3-[4-[4-(4-isopropylpiperazin-1-yl)phenyl]-1H-pyrrolo[3,2-c]pyridin-2-yl]propyl]morpholine] | – | 100 | – | – |

More lines, main results first:

| inhibition at 1 µM [1] [%] | inhibition at 1 µM [2] [%] | SMILES | inhibition at 1 µM (read-out: mTLR9 inhibitory activity (% at 1 μM), IL-6) [%] | inhibition at 1 µM (read-out: mTLR9 inhibitory activity (% at 1 μM), TNF-α) [%] |
| --- | --- | --- | --- | --- |
| 100 | 100 | CC(C)N1CCN(c2ccc(-c3nccc4[nH]c(CCN5CCOCC5)cc34)cc2)CC1 [Example B1, 4-[2-[4-[4-(4-isopropylpiperazin-1-yl)phenyl]-1H-pyrrolo[3,2-c]pyridin-2-yl]ethyl]morpholine] | – | – |
| – | 100 | Cc1nc(-c2ccc(N3CCN(C)CC3)cc2)c2cc(CCN3CCOCC3)[nH]c2c1C [Example B7, 4-[2-[6,7-dimethyl-4-[4-(4-methylpiperazin-1-yl)phenyl]-1H-pyrrolo[3,2-c]pyridin-2-yl]ethyl]morpholine] | – | – |
| – | 93 | CCN1CCN(c2ccc(-c3nc(C)c(C)c4[nH]c(CCN5CCOCC5)cc34)cc2)CC1 [Example B8, 4-[2-[4-[4-(4-ethylpiperazin-1-yl)phenyl]-6,7-dimethyl-1H-pyrrolo[3,2-c]pyridin-2-yl]ethyl]morpholine] | – | – |
| 100 | 100 | Cc1nc(-c2ccc(N3CCN(C(C)C)CC3)cc2)c2cc(CCN3CCCC3)[nH]c2c1C [Example B10, 4-[4-(4-isopropylpiperazin-1-yl)phenyl]-6,7-dimethyl-2-(2-pyrrolidin-1-ylethyl)-1H-pyrrolo[3,2-c]pyridine] | – | – |
| 100 | 100 | Cc1cc2c(cc(CCN3CCOCC3)n2C)c(-c2cccc(N3CCN(C(C)C)CC3)c2)n1 [Example B21, 4-[2-[4-[3-(4-isopropylpiperazin-1-yl)phenyl]-1,6-dimethyl-pyrrolo[3,2-c]pyridin-2-yl]ethyl]morpholine] | – | – |
| – | 100 | CN1CCN(c2ccc(-c3nccc4[nH]c(CCCN5CCOCC5)cc34)cc2)CC1 [Example C2, 4-[3-[4-[4-(4-methylpiperazin-1-yl)phenyl]-1H-pyrrolo[3,2-c]pyridin-2-yl]propyl]morpholine] | – | – |
| 100 | 100 | Cc1cc2[nH]c(CCCN3CCOCC3)cc2c(-c2ccc(N3CCN(C(C)C)CC3)cc2)n1 [Example C3, 4-[3-[4-[4-(4-isopropylpiperazin-1-yl)phenyl]-6-methyl-1H-pyrrolo[3,2-c]pyridin-2-yl]propyl]morpholine] | – | – |

Reference: patent US9643967B2, “Pyrrolo[3,2-c]pyridine derivatives as TLR inhibitors” (TAKEDA PHARMACEUTICAL COMPANY LIMITED, priority 2013, dated 2017)
